In assay [1] the target is T1, COX-1 (Ovis aries, UniProt P05979).
T1 construct: gene PTGS1
Put plainly: Cayman COX Fluorescent Inhibitor Screening Assay Kit. The format is biochemical.

In assay [2] the target is T2, COX-2 (Homo sapiens, UniProt P35354).
T2 construct: gene PTGS2
T2 sequence (P35354 18-604): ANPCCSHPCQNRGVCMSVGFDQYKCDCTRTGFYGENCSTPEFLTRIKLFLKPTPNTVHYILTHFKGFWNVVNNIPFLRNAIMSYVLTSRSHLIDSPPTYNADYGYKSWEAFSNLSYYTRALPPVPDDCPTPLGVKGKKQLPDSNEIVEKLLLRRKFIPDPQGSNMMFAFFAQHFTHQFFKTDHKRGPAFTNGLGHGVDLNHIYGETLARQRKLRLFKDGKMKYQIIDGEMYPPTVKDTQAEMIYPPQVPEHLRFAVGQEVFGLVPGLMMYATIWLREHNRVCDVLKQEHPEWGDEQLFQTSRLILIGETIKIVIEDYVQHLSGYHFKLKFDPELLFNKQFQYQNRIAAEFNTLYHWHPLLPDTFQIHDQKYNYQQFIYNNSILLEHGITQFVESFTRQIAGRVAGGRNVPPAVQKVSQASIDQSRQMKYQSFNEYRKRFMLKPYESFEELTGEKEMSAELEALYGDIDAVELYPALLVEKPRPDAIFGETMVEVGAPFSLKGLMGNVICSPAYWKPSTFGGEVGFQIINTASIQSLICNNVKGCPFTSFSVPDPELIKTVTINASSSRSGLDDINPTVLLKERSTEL
The assay is described as above. The assay is classed as biochemical.

T1 sequence (P05979 25-600): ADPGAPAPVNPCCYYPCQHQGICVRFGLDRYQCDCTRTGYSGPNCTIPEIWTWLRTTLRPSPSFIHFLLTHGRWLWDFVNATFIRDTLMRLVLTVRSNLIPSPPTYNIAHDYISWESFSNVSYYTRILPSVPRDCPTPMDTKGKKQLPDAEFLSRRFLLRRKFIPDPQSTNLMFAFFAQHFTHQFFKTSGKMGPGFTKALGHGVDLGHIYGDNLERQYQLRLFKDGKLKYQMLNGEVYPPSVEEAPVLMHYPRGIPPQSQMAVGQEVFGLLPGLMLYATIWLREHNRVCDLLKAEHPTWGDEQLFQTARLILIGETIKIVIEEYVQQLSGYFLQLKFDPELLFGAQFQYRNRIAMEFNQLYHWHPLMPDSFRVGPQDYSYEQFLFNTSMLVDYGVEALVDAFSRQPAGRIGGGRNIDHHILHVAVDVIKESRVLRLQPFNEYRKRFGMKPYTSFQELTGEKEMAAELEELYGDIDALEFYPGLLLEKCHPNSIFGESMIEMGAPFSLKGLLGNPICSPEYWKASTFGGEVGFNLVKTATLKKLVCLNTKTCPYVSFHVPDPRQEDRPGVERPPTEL

For the compound `CC(=O)N/C=C/c1ccc2c(c1)O[C@H](c1ccc(O)c(O)c1)[C@H](NC(C)=O)O2` (racemic) [compound 4, cis-2-(3′,4′-dihydroxyphenyl)-3-acetylamino-7-(N-acetyl-2″-amino-ethylene)-1,4-benzodioxane], the IC50 in assay [1] is 78.8 µM; in assay [2], 6.43 µM.

In general, IC50 refers to the concentration that gives 50% inhibition. Read a high IC50 as lower potency.

The record behind these values is article PMC6331819, “Identification of N-Acetyldopamine Dimers from the Dung Beetle Catharsius molossus and Their COX-1 and COX-2 Inhibitory Activities” (Molecules, 2015).
